The text below walks through data of patent publication US11932636B2, “RAD51 inhibitors” (Cyteir Therapeutics, Inc., priority 2019, dated 2024).

This test deals with Daudi cells (AID positive). The experiment in a line: Compound primary screening: cell death in AID positive Daudi cells (Cell-Titer Glo, Day 7). The test is classed as cell-based. The following applies: Homo sapiens, 168 h; Daudi cells, AID positive; cell death on Day 7, Cell-Titer Glo; read-out: Cellular activity in AID + (Daudi). The protocol:
Example 149. Compound Primary Screening
AID expressing cells are dependent upon RAD51 for survival; inhibiting RAD51 in AID positive cells results in a cytotoxic effect.
A 96 well u-bottom plate was prepared by writing the experiment number, plate number, date and initials in the top right corner of the plate lid. With a sterile 300 ml reservoir, and 25 ml serological pipette, evaporation buffer media was pipetted into reservoir in 25 ml increments. Using the liquid handler, 150 ul of evaporation buffer media was pipetted from reservoir into rows A and H, and Columns 1 and 12 of the 96 well u-bottom plate. Cell cultures were counted to obtain the density of cells per ml, and the culture viability. The cell density information was used to obtain 1,000,000 cells from culture using a 5 mL serological pipette into an epi tube. The cell density information from the culture was used to calculate the number of cells and volume of media needed for the assay to seed 1250 cells in 130 ul of media per available culture well in the 96 well u-bottom plate. Rows B through F were used for cells (50 wells in total), with row G left for an empty media control. The calculation was overestimated by 10 mL to account for the dead volume in the 300 ml reservoir. Once the media volume was calculated, the appropriate volume of media was pipetted in 25 mL increments into the 250 mL bottle using a 25 mL serological pipette. The 250 ml bottle was capped tightly, and placed into a 37° C. water bath for 2 minutes. While the culture media was warming, 10 mL of fresh media was pipetted from the 500 mL culture media bottle into a sterile 25 mL reservoir. Using the Eppendorf multichannel pipette, 130 ul of media was pipetted from the 25 mL reservoir into row G of the 96 well u-bottom plate. Once the 250 mL bottle of media was warmed, the volume of culture needed was pipetted into the bottle, and mixed gently with a 25 mL serological pipette as to not create bubbles, and then the contents of the bottle were pipetted into a new 300 mL reservoir. Using the liquid handler, 130 ul of culture was pipetted from the 300 mL reservoir into rows B through F of the 96 well u-bottom plate. Once the culture was added, the plate was placed into a 37° C. incubator until the compound master plate was prepared for use.
Two 96 well u-bottom plates were prepared by writing the master plate name in the upper right corner of the plate lid. Labeling one DMSO master and the other Media Master. The compounds of interest were obtained from the laboratory freezer, and placed into a 25 well storage box with a lid, and set the box aside. The compounds were vortexed after thawing but before use. Using an automatic multichannel pipette, 20 ul of 100% DMSO was pipetted into wells B3-B11 through G3-G11 of the DMSO master plate. For each compound on the master plate, 50 ul of the compound were pipetted in the appropriate well of row 2 (reference plate map to determine appropriate well). A serial dilution was prepared beginning by aspirating 20 ul from row 2 and mixing with row 3, repeating until row 11 was reached. Using the liquid handler, 194 ul of Daudi media was dispensed into wells B2-B11 through G2-G11 of the Media master plate. Using the liquid handler, 6 ul from the DMSO master plate was aspirated and dispensed into the media master plate, mixing 100 ul twice.
Compounds from master plate were then added to the culture plate. The culture plates were removed from the incubator, and set inside the biosafety cabinet. Using a liquid handler, 20 ul from wells B2 to B11 through G2 to G11 of master plate were aspirated, and dispensed into wells B2 to B11 through G2 to G11 of culture plate. This set was continued with each culture plate. Once the culture plates acquired their 20 ul of compound dilutions, they were placed back into the incubator, until their reads on Day 7 of experiment.
Cell death was measured on Day 7 of the experiment using Cell-Titer Glo and a Promega Plate reader.

Take `CC(C)OC(=O)N[C@H]1CC[C@H](c2ncc(-c3ccc(CN)cc3S(=O)(=O)NC(C)(C)C)s2)CC1` [Compound 1, isopropyl (trans-4-(5-(4-(aminomethyl)-2-(N-(tert-butyl)sulfamoyl)phenyl)thiazol-2-yl)cyclohexyl)carbamate]: the EC50 is greater than 10 µM.

`CC(=O)NCc1ccc(-c2cnc([C@H]3CC[C@H](NC(=O)OC(C)C)CC3)s2)c(S(=O)(=O)NC(C)(C)C)c1` [Compound 2, isopropyl (trans-4-(5-(4-(acetamidomethyl)-2-(N-(tert-butyl)sulfamoyl)phenyl)thiazol-2-yl)cyclohexyl)carbamate]: the EC50 was greater than 10 µM.

Consider `CC(C)OC(=O)N[C@H]1CC[C@H](c2ncc(-c3ccc(-c4cnn5ccccc45)cc3S(=O)(=O)NC(C)(C)C)s2)CC1` [Compound 3, isopropyl (trans-4-(5-(2-(N-(tert-butyl)sulfamoyl)-4-(pyrazolo[1,5-a]pyridin-3-yl)phenyl)thiazol-2-yl)cyclohexyl)carbamate], for which the EC50 was 0.1 to 1 µM.

Consider `CC(C)OC(=O)N[C@H]1CC[C@H](c2ncc(-c3ccc(-c4cnn(CC(F)(F)F)c4)cc3S(=O)(=O)NC(C)(C)C)s2)CC1` [Compound 4, isopropyl (trans-4-(5-(2-(N-(tert-butyl)sulfamoyl)-4-(1-(2,2,2-trifluoroethyl)-1H-pyrazol-4-yl)phenyl)thiazol-2-yl)cyclohexyl)carbamate], for which the EC50 was in the range of 0.1 to 1 µM.

With `CC(C)OC(=O)N[C@H]1CC[C@H](c2ncc(-c3ccc(-c4cccnc4)cc3S(=O)(=O)NC(C)(C)C)s2)CC1` [Compound 5, isopropyl (trans-4-(5-(2-(N-(tert-butyl)sulfamoyl)-4-(pyridin-3-yl)phenyl)thiazol-2-yl)cyclohexyl)carbamate], the EC50 was in the range of 1 to 10 µM.

Turning to `CC(C)OC(=O)N[C@H]1CC[C@H](c2ncc(-c3ccc(-c4cc[nH]n4)cc3S(=O)(=O)NC(C)(C)C)s2)CC1` [Compound 6, isopropyl (trans-4-(5-(2-(N-(tert-butyl)sulfamoyl)-4-(1H-pyrazol-3-yl)phenyl)thiazol-2-yl)cyclohexyl)carbamate], the EC50 fell in the range of 1 to 10 µM.

Consider `CC(C)OC(=O)N[C@H]1CC[C@H](c2ncc(-c3ccc(-c4ccc(O)nc4)cc3S(=O)(=O)NC(C)(C)C)s2)CC1` [Compound 7, isopropyl (trans-4-(5-(2-(N-(tert-butyl)sulfamoyl)-4-(6-hydroxypyridin-3-yl)phenyl)thiazol-2-yl)cyclohexyl)carbamate], for which the EC50 fell in the range of 1 to 10 µM.

Regarding `COc1ncc(-c2ccc(-c3cnc([C@H]4CC[C@H](NC(=O)OC(C)C)CC4)s3)c(S(=O)(=O)NC(C)(C)C)c2)c(OC)n1` [Compound 8, isopropyl (trans-4-(5-(2-(N-(tert-butyl)sulfamoyl)-4-(2,4-dimethoxypyrimidin-5-yl)phenyl)thiazol-2-yl)cyclohexyl)carbamate], the EC50 was 0.1 to 1 µM.

On to `CC(C)OC(=O)N[C@H]1CC[C@H](c2ncc(-c3ccc(-c4ccc5c[nH]nc5c4)cc3S(=O)(=O)NC(C)(C)C)s2)CC1` [Compound 9, isopropyl (trans-4-(5-(2-(N-(tert-butyl)sulfamoyl)-4-(2H-indazol-6-yl)phenyl)thiazol-2-yl)cyclohexyl)carbamate], for which the EC50 lay in the range of 1 to 10 µM.

Consider `CC(C)OC(=O)N[C@H]1CC[C@H](c2ncc(-c3ccc(-c4cnc(N)nc4)cc3S(=O)(=O)NC(C)(C)C)s2)CC1` [Compound 10, isopropyl (trans-4-(5-(4-(2-aminopyrimidin-5-yl)-2-(N-(tert-butyl)sulfamoyl)phenyl)thiazol-2-yl)cyclohexyl)carbamate], for which the EC50 was 0.1 to 1 µM.

As for `CC(C)OC(=O)N[C@H]1CC[C@H](c2ncc(-c3ccc(-c4ccc5occc5c4)cc3S(=O)(=O)NC(C)(C)C)s2)CC1` [Compound 11, isopropyl (trans-4-(5-(4-(benzofuran-5-yl)-2-(N-(tert-butyl)sulfamoyl)phenyl)thiazol-2-yl)cyclohexyl)carbamate], the EC50 is 1 to 10 µM.

For the molecule `CC(C)OC(=O)N[C@H]1CC[C@H](c2ncc(-c3ccc(-c4cncnc4)cc3S(=O)(=O)NC(C)(C)C)s2)CC1` [Compound 12, isopropyl (trans-4-(5-(2-(N-(tert-butyl)sulfamoyl)-4-(pyrimidin-5-yl)phenyl)thiazol-2-yl)cyclohexyl)carbamate], the EC50 is greater than 10 µM.

On to `COc1cc(-c2ccc(-c3cnc([C@H]4CC[C@H](NC(=O)OC(C)C)CC4)s3)c(S(=O)(=O)NC(C)(C)C)c2)c(OC)nn1` [Compound 13, isopropyl (trans-4-(5-(2-(N-(tert-butyl)sulfamoyl)-4-(3,6-dimethoxypyridazin-4-yl)phenyl)thiazol-2-yl)cyclohexyl)carbamate], for which the EC50 fell in the range of 0.1 to 1 µM.

`Cc1ncc(-c2ccc(-c3cnc([C@H]4CC[C@H](NC(=O)OC(C)C)CC4)s3)c(S(=O)(=O)NC(C)(C)C)c2)s1` [Compound 14, isopropyl (trans-4-(5-(2-(N-(tert-butyl)sulfamoyl)-4-(2-methylthiazol-5-yl)phenyl)thiazol-2-yl)cyclohexyl)carbamate]: the EC50 was 1 to 10 µM.

For the molecule `CC(C)OC(=O)N[C@H]1CC[C@H](c2ncc(-c3ccc(-c4ccc5ncsc5c4)cc3S(=O)(=O)NC(C)(C)C)s2)CC1` [Compound 15, isopropyl (trans-4-(5-(4-(benzo[d]thiazol-6-yl)-2-(N-(tert-butyl)sulfamoyl)phenyl)thiazol-2-yl)cyclohexyl)carbamate], the EC50 was 1 to 10 µM.

On to `CC(C)OC(=O)N[C@H]1CC[C@H](c2ncc(-c3ccc(-c4cncc(CN(C)C)c4)cc3S(=O)(=O)NC(C)(C)C)s2)CC1` [Compound 16, isopropyl (trans-4-(5-(2-(N-(tert-butyl)sulfamoyl)-4-(5-((dimethylamino)methyl)pyridin-3-yl)phenyl)thiazol-2-yl)cyclohexyl)carbamate], for which the EC50 fell in the range of 1 to 10 µM.

`Cc1[nH]ncc1-c1ccc(-c2cnc([C@H]3CC[C@H](NC(=O)OC(C)C)CC3)s2)c(S(=O)(=O)NC(C)(C)C)c1` [Compound 17, isopropyl (trans-4-(5-(2-(N-(tert-butyl)sulfamoyl)-4-(5-methyl-1H-pyrazol-4-yl)phenyl)thiazol-2-yl)cyclohexyl)carbamate]: the EC50 was 1 to 10 µM.

As to `CC(C)OC(=O)N[C@H]1CC[C@H](c2ncc(-c3ccc(-c4ccc(C#N)nc4)cc3S(=O)(=O)NC(C)(C)C)s2)CC1` [Compound 18, isopropyl (trans-4-(5-(2-(N-(tert-butyl)sulfamoyl)-4-(6-cyanopyridin-3-yl)phenyl)thiazol-2-yl)cyclohexyl)carbamate], the EC50 was 1 to 10 µM.

Regarding `CC(C)OC(=O)N[C@H]1CC[C@H](c2ncc(-c3ccc(-c4ccc5nn[nH]c5c4)cc3S(=O)(=O)NC(C)(C)C)s2)CC1` [Compound 19, isopropyl (trans-4-(5-(4-(1H-benzo[d][1,2,3]triazol-6-yl)-2-(N-(tert-butyl)sulfamoyl)phenyl)thiazol-2-yl)cyclohexyl)carbamate], the EC50 is greater than 10 µM.

For `CC(C)OC(=O)N[C@H]1CC[C@H](c2ncc(-c3ccc(-c4ccc(CO)nc4)cc3S(=O)(=O)NC(C)(C)C)s2)CC1` [Compound 20, isopropyl (trans-4-(5-(2-(N-(tert-butyl)sulfamoyl)-4-(6-(hydroxymethyl)pyridin-3-yl)phenyl)thiazol-2-yl)cyclohexyl)carbamate], the EC50 was 1 to 10 µM.

For `Cc1c[nH]c2cc(-c3ccc(-c4cnc([C@H]5CC[C@H](NC(=O)OC(C)C)CC5)s4)c(S(=O)(=O)NC(C)(C)C)c3)ccc12` [Compound 21, isopropyl (trans-4-(5-(2-(N-(tert-butyl)sulfamoyl)-4-(3-methyl-1H-indol-6-yl)phenyl)thiazol-2-yl)cyclohexyl)carbamate], the EC50 lay within 1 to 10 µM.
